Molecular target: T1, ATP-binding cassette transporter A1 (ABCA1) (Homo sapiens, UniProt O95477)
T1 construct: full-length ABCA1 (pIRES2-EGFP-ABCA1) in CHO cells; with apoA-I
Test: cell-based ELISA-like apoA-I binding to ABCA1-transfected CHO cells, with vector-only control; western blot

T1 sequence (O95477 whole entry): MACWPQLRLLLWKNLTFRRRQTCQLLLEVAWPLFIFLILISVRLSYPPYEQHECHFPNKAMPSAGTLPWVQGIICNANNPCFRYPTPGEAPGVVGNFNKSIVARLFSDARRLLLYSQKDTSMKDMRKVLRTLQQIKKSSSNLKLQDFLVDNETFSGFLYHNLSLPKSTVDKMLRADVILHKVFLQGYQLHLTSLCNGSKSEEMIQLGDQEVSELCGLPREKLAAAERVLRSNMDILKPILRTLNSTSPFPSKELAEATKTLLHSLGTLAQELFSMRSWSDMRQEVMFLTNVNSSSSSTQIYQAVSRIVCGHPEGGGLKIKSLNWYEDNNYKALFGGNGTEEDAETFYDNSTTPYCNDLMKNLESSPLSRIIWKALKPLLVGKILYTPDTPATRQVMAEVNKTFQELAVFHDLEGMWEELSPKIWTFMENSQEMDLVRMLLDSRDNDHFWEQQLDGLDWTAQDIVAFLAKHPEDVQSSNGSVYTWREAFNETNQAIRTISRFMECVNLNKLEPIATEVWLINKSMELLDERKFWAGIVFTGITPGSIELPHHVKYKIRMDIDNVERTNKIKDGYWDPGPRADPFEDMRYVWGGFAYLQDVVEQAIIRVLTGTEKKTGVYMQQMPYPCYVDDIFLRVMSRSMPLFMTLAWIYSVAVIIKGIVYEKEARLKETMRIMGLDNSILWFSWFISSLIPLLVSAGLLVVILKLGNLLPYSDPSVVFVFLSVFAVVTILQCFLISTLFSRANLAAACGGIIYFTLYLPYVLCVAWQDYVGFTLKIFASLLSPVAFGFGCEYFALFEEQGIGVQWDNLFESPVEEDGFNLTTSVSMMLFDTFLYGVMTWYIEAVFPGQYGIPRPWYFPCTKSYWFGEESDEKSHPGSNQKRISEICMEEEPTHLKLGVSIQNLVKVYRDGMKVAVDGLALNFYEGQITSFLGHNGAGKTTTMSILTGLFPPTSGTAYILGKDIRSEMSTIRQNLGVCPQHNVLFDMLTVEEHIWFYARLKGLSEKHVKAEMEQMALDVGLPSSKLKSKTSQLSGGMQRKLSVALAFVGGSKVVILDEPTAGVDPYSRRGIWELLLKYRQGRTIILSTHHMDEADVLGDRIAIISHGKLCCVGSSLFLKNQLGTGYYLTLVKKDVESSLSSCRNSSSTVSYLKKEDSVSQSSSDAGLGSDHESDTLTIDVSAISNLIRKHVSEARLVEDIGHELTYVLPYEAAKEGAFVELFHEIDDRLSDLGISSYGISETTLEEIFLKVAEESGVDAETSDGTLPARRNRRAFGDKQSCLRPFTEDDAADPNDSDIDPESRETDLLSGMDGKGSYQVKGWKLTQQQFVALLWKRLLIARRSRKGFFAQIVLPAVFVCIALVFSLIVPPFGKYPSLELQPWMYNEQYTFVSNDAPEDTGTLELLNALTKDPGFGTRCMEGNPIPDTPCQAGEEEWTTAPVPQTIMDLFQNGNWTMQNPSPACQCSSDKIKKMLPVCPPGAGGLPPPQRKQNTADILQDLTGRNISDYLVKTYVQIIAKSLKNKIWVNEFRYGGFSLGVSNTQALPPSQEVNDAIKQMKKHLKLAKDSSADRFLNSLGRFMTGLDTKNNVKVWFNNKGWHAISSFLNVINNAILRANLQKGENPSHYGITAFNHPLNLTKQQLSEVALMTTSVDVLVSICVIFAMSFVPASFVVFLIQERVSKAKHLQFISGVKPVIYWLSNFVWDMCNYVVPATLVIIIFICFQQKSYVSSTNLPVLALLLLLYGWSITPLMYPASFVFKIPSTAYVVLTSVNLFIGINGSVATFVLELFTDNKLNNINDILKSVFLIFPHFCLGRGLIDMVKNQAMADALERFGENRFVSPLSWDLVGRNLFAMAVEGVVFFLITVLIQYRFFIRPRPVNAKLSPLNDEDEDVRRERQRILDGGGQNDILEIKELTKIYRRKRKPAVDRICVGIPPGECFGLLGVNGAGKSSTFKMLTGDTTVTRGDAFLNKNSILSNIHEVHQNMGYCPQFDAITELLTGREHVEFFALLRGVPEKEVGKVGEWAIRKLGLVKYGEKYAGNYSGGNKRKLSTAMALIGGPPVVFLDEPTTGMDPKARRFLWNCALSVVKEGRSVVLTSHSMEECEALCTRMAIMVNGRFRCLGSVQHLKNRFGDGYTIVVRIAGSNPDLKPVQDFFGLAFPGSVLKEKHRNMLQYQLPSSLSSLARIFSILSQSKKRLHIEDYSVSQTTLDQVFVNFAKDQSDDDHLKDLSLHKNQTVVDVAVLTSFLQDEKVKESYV
T1 sequence (P02647 25-267 partner): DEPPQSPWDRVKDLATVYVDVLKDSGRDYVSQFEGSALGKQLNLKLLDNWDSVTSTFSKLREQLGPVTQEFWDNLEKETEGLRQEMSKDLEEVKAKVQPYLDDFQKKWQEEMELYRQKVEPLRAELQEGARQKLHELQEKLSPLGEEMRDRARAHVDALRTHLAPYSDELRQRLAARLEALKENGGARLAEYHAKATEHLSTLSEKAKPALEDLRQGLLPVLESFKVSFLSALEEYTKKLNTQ

## COc1ccc(Cl)cc1C(=O)NCCc1ccc(S(=O)(=O)NC(=O)NC2CCCCC2)cc1 [glibenclamide]
  cell-based ELISA-like apoA-I binding to ABCA1-transfected CHO cells, with vector: an inhibition by glibenclamide was observed on transfected cells expressing ABCA1
